From article PMC5766581, “NF-κB inducing kinase is a therapeutic target for systemic lupus erythematosus” (Nature Communications, 2018)

Assays:
Assay in all cases: SelectScreen kinase panel
Type in all cases: biochemical
DYRK4 = molecular target: T1, DYRK4 (Homo sapiens, UniProt Q9NR20)
T1 construct: purchased Invitrogen / ThermoFisher SelectScreen
Experimental: (§1) The ability of NIK to catalyze the hydrolysis of adenosine-5′-triphosphate (ATP) was monitored using the Transcreener ADP (adenosine-5′-diphosphate) assay (Bell Brook Labs, Fitchburg, WI). Purified human NIK kinase domain (a.a. 340–694) (0.5 nM) or mouse NIK kinase domain (a.a. 329–675) (1 nM) derived from a baculovirus-infected insect cell expression system was incubated with test compounds for 0.5–2 h in 50 mM HEPES buffer (pH 7.2) containing 10 mM MgCl2, 2 mM dithiothreitol, 10 μM ATP, 0.01% Triton X-100, 0.1% gamma-globulins from bovine blood, 1% dimethylsulfoxide (DMSO), 7 μg/mL ADP antibody and 5 nM ADP-MR121 633 tracer. Reactions were quenched by the addition of 20 mM EDTA and 0.01% Brij 35. The tracer bound to the antibody was displaced by the ADP generated during the NIK reaction, which caused a decrease in fluorescence polarization that was measured by laser excitation at 633 nm with a Fluorescence Correlation Spectroscopy Plus reader (Evotec AG). Equilibrium dissociation constant (Ki) values for NIK inhibitors are calculated from plots of activity vs. inhibitor concentration using Morrison’s quadratic equation that accounts for the potential of tight binding, and by also applying the conversion factor that accounted for competitive inhibition and the concentration of substrate used in the assay relative to its Michaelis constant (Km). The Ki values with hPKD1 (PKCμ) were determined using the same assay conditions as for NIK. Ki measurements for hKHS1 and hLRRK2, as well as broad kinase selectivity profiling for SMI1, were carried out by Invitrogen using their SelectScreen kinase assay panel (ThermoFisher Scientific, Madison, WI). The vendor offered two types of kinase activity assays, a peptide phosphorylation assay (Z′-LYTE) and an ADP quantitation assay (Adapta), as well as one type of kinase ATP site competitive binding assay (LanthaScreen). See vendor web site for technology and protocol details for each specific kinase assay.
(§2) The average % Inhibition of each kinase is reported (Supplementary Table 1).

CDK1/cyclinB = molecular target: T2, CDK1/cyclinB (Homo sapiens, UniProt P06493)
T2 construct: purchased Invitrogen / ThermoFisher SelectScreen
Experimental: as §1, §2

MST4 = molecular target: T3, MST4 (Homo sapiens, UniProt Q9P289)
T3 construct: purchased Invitrogen / ThermoFisher SelectScreen
Experimental: as §1, §2

MLK1 = molecular target: T4, MLK1 (Homo sapiens, UniProt P80192)
T4 construct: purchased Invitrogen / ThermoFisher SelectScreen
Experimental: as §1, §2

CHK1 = molecular target: T5, CHK1 (Homo sapiens, UniProt O14757)
T5 construct: purchased Invitrogen / ThermoFisher SelectScreen
Experimental: as §1, §2

TrkA = molecular target: T6, TrkA (Homo sapiens, UniProt P04629)
T6 construct: purchased Invitrogen / ThermoFisher SelectScreen
Experimental: as §1, §2

Ron = molecular target: T7, Ron (Homo sapiens, UniProt Q04912)
T7 construct: purchased Invitrogen / ThermoFisher SelectScreen
Experimental: as §1, §2

FGFR4 = molecular target: T8, FGFR4 (Homo sapiens, UniProt P22455)
T8 construct: purchased Invitrogen / ThermoFisher SelectScreen
Experimental: as §1, §2

Frk = molecular target: T9, Frk (Homo sapiens, UniProt P42685)
T9 construct: purchased Invitrogen / ThermoFisher SelectScreen
Experimental: as §1, §2

TXK = molecular target: T10, TXK (Homo sapiens, UniProt P42681)
T10 construct: purchased Invitrogen / ThermoFisher SelectScreen
Experimental: as §1, §2

PLK1 = molecular target: T11, PLK1 (Homo sapiens, UniProt P53350)
T11 construct: purchased Invitrogen / ThermoFisher SelectScreen
Experimental: as §1, §2

LTK = molecular target: T12, LTK (Homo sapiens, UniProt P29376)
T12 construct: purchased Invitrogen / ThermoFisher SelectScreen
Experimental: as §1, §2

Lck = molecular target: T13, Lck (Homo sapiens, UniProt P06239)
T13 construct: purchased Invitrogen / ThermoFisher SelectScreen
Experimental: as §1, §2

PKC_theta = molecular target: T14, PKC_theta (Homo sapiens, UniProt Q04759)
T14 construct: purchased Invitrogen / ThermoFisher SelectScreen
Experimental: as §1, §2

MST3 = molecular target: T15, MST3 (Homo sapiens, UniProt Q9Y6E0)
T15 construct: purchased Invitrogen / ThermoFisher SelectScreen
Experimental: as §1, §2

PI3K- A = molecular target: T16, PI3K- A (Homo sapiens, UniProt P42336)
T16 construct: purchased Invitrogen / ThermoFisher SelectScreen
Experimental: as §1, §2

CSK = molecular target: T17, CSK (Homo sapiens, UniProt P41240)
T17 construct: purchased Invitrogen / ThermoFisher SelectScreen
Experimental: as §1, §2

Bmx = molecular target: T18, Bmx (Homo sapiens, UniProt P51813)
T18 construct: purchased Invitrogen / ThermoFisher SelectScreen
Experimental: as §1, §2

MSSK1 = molecular target: T19, MSSK1 (Homo sapiens, UniProt Q9UPE1)
T19 construct: purchased Invitrogen / ThermoFisher SelectScreen
Experimental: as §1, §2

Flt4 = molecular target: T20, Flt4 (Homo sapiens, UniProt P35916)
T20 construct: purchased Invitrogen / ThermoFisher SelectScreen
Experimental: as §1, §2

CK2_alpha1 = molecular target: T21, CK2_alpha1 (Homo sapiens, UniProt P68400)
T21 construct: purchased Invitrogen / ThermoFisher SelectScreen
Experimental: as §1, §2

CLK1 = molecular target: T22, CLK1 (Homo sapiens, UniProt P49759)
T22 construct: purchased Invitrogen / ThermoFisher SelectScreen
Experimental: as §1, §2

Kit = molecular target: T23, Kit (Homo sapiens, UniProt P10721)
T23 construct: purchased Invitrogen / ThermoFisher SelectScreen
Experimental: as §1, §2

TrkB = molecular target: T24, TrkB (Homo sapiens, UniProt Q16620)
T24 construct: purchased Invitrogen / ThermoFisher SelectScreen
Experimental: as §1, §2

GRK5 = molecular target: T25, GRK5 (Homo sapiens, UniProt P34947)
T25 construct: purchased Invitrogen / ThermoFisher SelectScreen
Experimental: as §1, §2

IKK_epsilon = molecular target: T26, IKK_epsilon (Homo sapiens, UniProt Q14164)
T26 construct: purchased Invitrogen / ThermoFisher SelectScreen
Experimental: as §1, §2

Src = molecular target: T27, Src (Homo sapiens, UniProt P12931)
T27 construct: purchased Invitrogen / ThermoFisher SelectScreen
Experimental: as §1, §2

IRR = molecular target: T28, IRR (Homo sapiens, UniProt P14616)
T28 construct: purchased Invitrogen / ThermoFisher SelectScreen
Experimental: as §1, §2

Met = molecular target: T29, Met (Homo sapiens, UniProt P08581)
T29 construct: purchased Invitrogen / ThermoFisher SelectScreen
Experimental: as §1, §2

ZIPK = molecular target: T30, ZIPK (Homo sapiens, UniProt O43293)
T30 construct: purchased Invitrogen / ThermoFisher SelectScreen
Experimental: as §1, §2

PKD_delta = molecular target: T31, PKD_delta (Homo sapiens, UniProt Q05655)
T31 construct: purchased Invitrogen / ThermoFisher SelectScreen
Experimental: as §1, §2

PRK1 = molecular target: T32, PRK1 (Homo sapiens, UniProt Q16512)
T32 construct: purchased Invitrogen / ThermoFisher SelectScreen
Experimental: as §1, §2

RSK3 = molecular target: T33, RSK3 (Homo sapiens, UniProt Q15349)
T33 construct: purchased Invitrogen / ThermoFisher SelectScreen
Experimental: as §1, §2

T30 sequence (O43293 whole entry): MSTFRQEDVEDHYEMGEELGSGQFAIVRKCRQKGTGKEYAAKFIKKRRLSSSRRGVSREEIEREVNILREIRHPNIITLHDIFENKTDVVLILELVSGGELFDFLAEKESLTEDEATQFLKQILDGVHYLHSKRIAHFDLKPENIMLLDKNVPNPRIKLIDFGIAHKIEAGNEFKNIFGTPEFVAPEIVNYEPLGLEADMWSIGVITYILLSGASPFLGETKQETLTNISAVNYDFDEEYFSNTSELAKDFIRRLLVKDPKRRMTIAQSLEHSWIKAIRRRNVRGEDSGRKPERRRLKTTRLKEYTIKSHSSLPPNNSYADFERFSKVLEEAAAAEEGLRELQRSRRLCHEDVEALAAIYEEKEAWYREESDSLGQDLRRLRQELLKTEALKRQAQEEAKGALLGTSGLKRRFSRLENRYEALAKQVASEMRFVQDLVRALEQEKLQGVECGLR
T4 sequence (P80192 whole entry): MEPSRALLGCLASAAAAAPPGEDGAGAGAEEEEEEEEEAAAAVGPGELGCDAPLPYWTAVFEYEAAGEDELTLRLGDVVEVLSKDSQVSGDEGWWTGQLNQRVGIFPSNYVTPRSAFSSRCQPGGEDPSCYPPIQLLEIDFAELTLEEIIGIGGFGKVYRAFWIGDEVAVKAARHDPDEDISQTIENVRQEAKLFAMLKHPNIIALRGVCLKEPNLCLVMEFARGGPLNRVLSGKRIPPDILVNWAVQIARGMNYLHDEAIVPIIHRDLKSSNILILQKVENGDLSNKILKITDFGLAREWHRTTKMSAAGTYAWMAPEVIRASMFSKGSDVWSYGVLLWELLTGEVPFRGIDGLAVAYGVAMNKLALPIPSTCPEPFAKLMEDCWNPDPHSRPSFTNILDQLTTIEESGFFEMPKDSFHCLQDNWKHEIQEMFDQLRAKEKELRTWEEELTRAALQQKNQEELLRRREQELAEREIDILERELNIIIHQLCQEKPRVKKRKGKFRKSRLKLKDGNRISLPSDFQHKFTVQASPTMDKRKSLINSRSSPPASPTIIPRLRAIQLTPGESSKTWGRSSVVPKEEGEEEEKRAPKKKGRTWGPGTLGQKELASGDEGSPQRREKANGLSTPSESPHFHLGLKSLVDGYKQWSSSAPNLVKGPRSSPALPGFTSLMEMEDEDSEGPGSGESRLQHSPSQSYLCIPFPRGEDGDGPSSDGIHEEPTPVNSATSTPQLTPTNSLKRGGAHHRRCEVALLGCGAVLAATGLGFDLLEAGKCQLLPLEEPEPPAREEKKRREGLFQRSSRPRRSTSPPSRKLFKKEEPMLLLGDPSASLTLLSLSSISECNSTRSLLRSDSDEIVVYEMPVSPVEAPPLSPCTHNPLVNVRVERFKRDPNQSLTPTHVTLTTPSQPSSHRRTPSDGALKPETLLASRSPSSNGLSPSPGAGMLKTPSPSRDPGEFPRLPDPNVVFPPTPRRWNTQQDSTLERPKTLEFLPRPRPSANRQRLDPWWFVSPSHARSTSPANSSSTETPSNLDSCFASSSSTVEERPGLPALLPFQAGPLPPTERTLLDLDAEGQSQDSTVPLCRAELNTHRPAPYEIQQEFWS
T13 sequence (P06239 whole entry): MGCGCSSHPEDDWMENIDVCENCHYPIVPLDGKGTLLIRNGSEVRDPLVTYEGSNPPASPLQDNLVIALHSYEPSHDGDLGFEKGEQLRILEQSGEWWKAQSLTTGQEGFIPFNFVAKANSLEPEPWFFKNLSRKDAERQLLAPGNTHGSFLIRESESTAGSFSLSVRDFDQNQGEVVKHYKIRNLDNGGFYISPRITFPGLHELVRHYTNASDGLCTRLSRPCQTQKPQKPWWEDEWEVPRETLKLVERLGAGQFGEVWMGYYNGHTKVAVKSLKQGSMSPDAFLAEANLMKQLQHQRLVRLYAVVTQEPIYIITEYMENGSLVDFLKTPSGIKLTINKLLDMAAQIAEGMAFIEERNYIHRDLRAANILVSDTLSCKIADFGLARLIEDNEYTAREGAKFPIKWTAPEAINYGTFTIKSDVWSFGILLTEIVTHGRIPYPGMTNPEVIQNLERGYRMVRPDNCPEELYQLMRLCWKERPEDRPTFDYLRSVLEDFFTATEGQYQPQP
T6 sequence (P04629 33-796): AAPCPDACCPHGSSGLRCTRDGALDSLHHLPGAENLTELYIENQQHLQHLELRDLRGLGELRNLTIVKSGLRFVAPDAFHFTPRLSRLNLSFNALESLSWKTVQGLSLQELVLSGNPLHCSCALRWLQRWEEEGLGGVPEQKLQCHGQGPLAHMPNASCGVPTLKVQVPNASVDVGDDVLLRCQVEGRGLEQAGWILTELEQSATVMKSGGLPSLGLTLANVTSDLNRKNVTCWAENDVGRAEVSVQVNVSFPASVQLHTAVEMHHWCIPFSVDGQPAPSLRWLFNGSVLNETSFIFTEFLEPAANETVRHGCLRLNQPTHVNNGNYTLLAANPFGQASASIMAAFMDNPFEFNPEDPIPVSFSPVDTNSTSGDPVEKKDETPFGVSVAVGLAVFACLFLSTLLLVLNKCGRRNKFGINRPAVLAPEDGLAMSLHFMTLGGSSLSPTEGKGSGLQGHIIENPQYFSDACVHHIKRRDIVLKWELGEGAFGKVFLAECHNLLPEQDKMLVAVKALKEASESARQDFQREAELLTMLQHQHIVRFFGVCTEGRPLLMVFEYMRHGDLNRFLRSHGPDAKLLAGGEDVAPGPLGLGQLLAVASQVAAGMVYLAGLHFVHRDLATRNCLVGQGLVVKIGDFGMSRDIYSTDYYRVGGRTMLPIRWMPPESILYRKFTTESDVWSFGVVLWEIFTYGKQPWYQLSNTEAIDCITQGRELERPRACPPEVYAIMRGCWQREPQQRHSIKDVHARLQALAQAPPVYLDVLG
T11 sequence (P53350 whole entry): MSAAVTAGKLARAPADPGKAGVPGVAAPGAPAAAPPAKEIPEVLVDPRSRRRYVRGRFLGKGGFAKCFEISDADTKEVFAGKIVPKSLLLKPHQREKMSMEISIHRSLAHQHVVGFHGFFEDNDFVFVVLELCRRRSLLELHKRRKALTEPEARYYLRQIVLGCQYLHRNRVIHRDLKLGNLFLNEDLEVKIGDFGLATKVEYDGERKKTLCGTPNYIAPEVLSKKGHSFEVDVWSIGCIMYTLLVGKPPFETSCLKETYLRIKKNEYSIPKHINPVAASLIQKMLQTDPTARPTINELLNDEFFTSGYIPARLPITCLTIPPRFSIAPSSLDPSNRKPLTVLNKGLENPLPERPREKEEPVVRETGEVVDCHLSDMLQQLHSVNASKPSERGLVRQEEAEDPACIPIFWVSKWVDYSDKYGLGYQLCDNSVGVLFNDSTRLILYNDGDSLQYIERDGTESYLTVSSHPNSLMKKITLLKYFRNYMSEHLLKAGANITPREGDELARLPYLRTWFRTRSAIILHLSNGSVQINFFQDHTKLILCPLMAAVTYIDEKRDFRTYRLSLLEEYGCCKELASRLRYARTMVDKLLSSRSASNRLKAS
T23 sequence (P10721 26-976): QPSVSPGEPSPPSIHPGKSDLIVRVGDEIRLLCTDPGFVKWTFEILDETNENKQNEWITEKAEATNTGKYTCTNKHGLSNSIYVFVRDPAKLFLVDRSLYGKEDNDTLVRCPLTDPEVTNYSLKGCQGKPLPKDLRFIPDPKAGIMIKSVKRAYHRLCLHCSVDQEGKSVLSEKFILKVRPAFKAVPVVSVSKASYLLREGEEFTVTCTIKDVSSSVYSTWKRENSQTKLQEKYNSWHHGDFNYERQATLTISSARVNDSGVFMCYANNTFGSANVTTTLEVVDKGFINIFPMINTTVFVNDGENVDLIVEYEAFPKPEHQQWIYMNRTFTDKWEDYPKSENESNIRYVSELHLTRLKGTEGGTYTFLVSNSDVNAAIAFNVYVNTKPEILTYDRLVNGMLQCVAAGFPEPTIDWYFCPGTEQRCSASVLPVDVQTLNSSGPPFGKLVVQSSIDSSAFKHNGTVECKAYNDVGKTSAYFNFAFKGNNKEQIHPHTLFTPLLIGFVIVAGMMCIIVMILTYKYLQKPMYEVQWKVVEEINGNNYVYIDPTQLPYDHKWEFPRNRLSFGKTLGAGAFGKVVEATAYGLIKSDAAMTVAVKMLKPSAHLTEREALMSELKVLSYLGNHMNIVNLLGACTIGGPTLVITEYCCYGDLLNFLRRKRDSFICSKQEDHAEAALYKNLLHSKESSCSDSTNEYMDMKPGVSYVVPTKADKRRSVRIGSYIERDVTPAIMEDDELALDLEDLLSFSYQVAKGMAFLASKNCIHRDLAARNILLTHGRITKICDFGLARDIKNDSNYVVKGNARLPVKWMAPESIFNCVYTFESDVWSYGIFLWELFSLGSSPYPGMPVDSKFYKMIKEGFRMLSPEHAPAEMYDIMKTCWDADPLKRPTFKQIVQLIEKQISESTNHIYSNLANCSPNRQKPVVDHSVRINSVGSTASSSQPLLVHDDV
T27 sequence (P12931 whole entry): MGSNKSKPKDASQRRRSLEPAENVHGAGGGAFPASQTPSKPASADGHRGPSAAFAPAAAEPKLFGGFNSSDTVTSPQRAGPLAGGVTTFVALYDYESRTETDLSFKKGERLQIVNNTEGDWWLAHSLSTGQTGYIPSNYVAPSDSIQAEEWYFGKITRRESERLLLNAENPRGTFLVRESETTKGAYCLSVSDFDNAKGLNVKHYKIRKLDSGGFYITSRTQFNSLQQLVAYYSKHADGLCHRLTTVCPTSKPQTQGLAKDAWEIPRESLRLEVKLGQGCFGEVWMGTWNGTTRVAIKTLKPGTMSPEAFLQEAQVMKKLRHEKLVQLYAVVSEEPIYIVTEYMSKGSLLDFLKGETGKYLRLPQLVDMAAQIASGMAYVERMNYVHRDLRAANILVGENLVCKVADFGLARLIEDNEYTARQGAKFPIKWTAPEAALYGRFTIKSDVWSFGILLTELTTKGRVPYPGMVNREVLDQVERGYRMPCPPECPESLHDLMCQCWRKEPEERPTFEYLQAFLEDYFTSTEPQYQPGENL

Compound COc1cc(C(N)=O)nc(-c2cccc(C#C[C@]3(O)CCN(C)C3=O)c2)c1 [NIK SMI1] has an inhibition at 1 µM (DYRK4) of 5.5%, an inhibition at 1 µM (CDK1/cyclinB) of 8.5% and an inhibition at 1 µM (MST4) of 33.5%. The inhibition at 1 µM (MLK1) was -1%, the inhibition at 1 µM (CHK1) was 14% and the inhibition at 1 µM (TrkA) was 2.5%. For the same compound, the inhibition at 1 µM (Ron) was 13%, the inhibition at 1 µM (FGFR4) was 7.5% and the inhibition at 1 µM (Frk) was 18%. It also gave an inhibition at 1 µM (TXK) of 4.5%, an inhibition at 1 µM (PLK1) of 1.5% and an inhibition at 1 µM (LTK) of -1%. For the same compound, the inhibition at 1 µM (Lck) was 0.5%, the inhibition at 1 µM (PKC_theta) was -6% and the inhibition at 1 µM (MST3) was 32.5%. The inhibition at 1 µM (PI3K- A) was -7.5%, the inhibition at 1 µM (CSK) was 12.5% and the inhibition at 1 µM (Bmx) was -5%. It also gave an inhibition at 1 µM (MSSK1) of 11.5%, an inhibition at 1 µM (Flt4) of 9% and an inhibition at 1 µM (CK2_alpha1) of 4.5%. The inhibition at 1 µM (CLK1) was 4.5%, the inhibition at 1 µM (Kit) was -3.5% and the inhibition at 1 µM (TrkB) was -3.5%. For the same compound, the inhibition at 1 µM (GRK5) was 0.5%, the inhibition at 1 µM (IKK_epsilon) was 19% and the inhibition at 1 µM (Src) was -1.5%. It also gave an inhibition at 1 µM (IRR) of 5%, an inhibition at 1 µM (Met) of 0% and an inhibition at 1 µM (ZIPK) of -5.5%. The inhibition at 1 µM (PKD_delta) was 1.5%, the inhibition at 1 µM (PRK1) was 5.5% and the inhibition at 1 µM (RSK3) was 5%.
